± gives the expanded uncertainty stated by the source.
Settings: Crystal, Transpiration method

CC(=O)Nc1ccccc1 [N-phenylethanamide]
Settings | vapor or sublimation pressure [kPa]
316.3 K | 9e-05 ± 2e-05
320.3 K | 0.00015 ± 2e-05
322.3 K | 0.00018 ± 2e-05
323.2 K | 0.00021 ± 2e-05
325.3 K | 0.00025 ± 2e-05
327 K | 0.0003 ± 2e-05
328.1 K | 0.00035 ± 3e-05
328.2 K | 0.00033 ± 2e-05
333.3 K | 0.0006 ± 5e-05
334.3 K | 0.00064 ± 5e-05
337.1 K | 0.00088 ± 7e-05
339.4 K | 0.00114 ± 8e-05
340.3 K | 0.00119 ± 8e-05
342.4 K | 0.00159 ± 0.0001
345.5 K | 0.00205 ± 0.00014
346.1 K | 0.00214 ± 0.00015
347.2 K | 0.0024 ± 0.00016
349.4 K | 0.00299 ± 0.0002
351.2 K | 0.00356 ± 0.00023
352.5 K | 0.00422 ± 0.00028
355.5 K | 0.00532 ± 0.00038
356.4 K | 0.00601 ± 0.00043
357.4 K | 0.00636 ± 0.00044
359.2 K | 0.00759 ± 0.00052
360.2 K | 0.00852 ± 0.00059
362.2 K | 0.01028 ± 0.0007
364.3 K | 0.01261 ± 0.00085
365.3 K | 0.01406 ± 0.00095
366.7 K | 0.01576 ± 0.001
368.4 K | 0.01777 ± 0.0012
369.2 K | 0.01911 ± 0.0013
372.2 K | 0.02411 ± 0.0016

Reference: the NIST ThermoML archive (doi:10.1016/j.fluid.2017.09.023)
